Here are results for two compounds from patent US9045459B2, “Phenalkylamine derivatives, pharmaceutical compositions containing them, and their use in therapy” (AbbVie Deutschland GmbH & Co. KG, priority 2010, dated 2015).

SMILES strings stand for the structures. pKi: −log10 of the molar value.

This assay addresses human GlyT1c transporter (Homo sapiens (Human), UniProt P48067). The experiment in a line: Radioligand binding assay using recombinant CHO cell membranes expressing human GlyT1. The note with it: read-out: radioligand binding Kiapp. On the procedure:
2. Radioligand binding assays using recombinant CHO cell membranes expressing human GlyT1:
Radioligand binding to human GlyT1c transporter-expressing membranes was determined as described in Mezler et al., Molecular Pharmacology 74:1705-1715, 2008.

Chain of human GlyT1c transporter (P48067 whole entry): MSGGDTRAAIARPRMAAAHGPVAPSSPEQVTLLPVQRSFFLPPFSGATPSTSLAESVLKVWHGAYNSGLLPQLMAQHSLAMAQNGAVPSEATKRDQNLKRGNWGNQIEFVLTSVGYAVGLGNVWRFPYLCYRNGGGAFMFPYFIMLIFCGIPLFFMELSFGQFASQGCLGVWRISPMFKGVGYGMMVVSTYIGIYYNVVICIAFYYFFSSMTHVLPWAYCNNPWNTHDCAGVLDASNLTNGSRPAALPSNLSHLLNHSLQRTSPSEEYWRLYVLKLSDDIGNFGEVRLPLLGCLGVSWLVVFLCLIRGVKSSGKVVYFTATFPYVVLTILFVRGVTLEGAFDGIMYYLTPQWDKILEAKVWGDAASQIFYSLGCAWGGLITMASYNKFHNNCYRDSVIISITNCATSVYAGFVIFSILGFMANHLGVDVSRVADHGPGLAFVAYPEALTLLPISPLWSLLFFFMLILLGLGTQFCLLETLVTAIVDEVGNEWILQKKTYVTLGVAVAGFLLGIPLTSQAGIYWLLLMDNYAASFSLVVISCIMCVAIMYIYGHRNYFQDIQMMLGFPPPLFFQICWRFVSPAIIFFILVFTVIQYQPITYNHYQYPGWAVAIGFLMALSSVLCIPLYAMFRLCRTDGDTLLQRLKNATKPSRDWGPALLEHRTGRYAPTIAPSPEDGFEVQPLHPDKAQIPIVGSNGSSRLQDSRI

With `Cn1cnc(S(=O)(=O)N2CCc3ccc(C(CN)Cc4ccccc4)cc3C2)c1` (centres unmarked) [Example 1, 2-(2-(1-Methyl-1H-imidazol-4-ylsulfonyl)-1,2,3,4-tetrahydroisoquinolin-7-yl)-3-phenylpropan-1-amine], the pKi was no less than 5.00.

`Cn1cc(S(=O)(=O)N2CCc3ccc(C(CN)Cc4ccccc4)cc3C2)cn1` (centres unmarked) [Example 2, 2-(2-(1-Methyl-1H-pyrazol-4-ylsulfonyl)-1,2,3,4-tetrahydroisoquinolin-7-yl)-3-phenylpropan-1-amine]: the pKi is no less than 5.00.
